Measured values from patent US4988687A, “Cephalosporin derivatives, and antibacterial agents” (priority 1986, dated 1991).
Read-outs that look alike come from different tables or passages of the source.

Tests used:
[1] = system: S. aureus 209P NIHJ-JC1; test: agar plate dilution method, MIC against S. aureus 209P NIHJ-JC1; format: cell-based; conditions: Staphylococcus aureus, read-out: Minimum Inhibitory Concentration (MIC)
Description: (§1) The in vitro antibacterial activities of the compounds of the present invention against various microorganisms, were measured by the following agar plate dilution method. One platinum loopfull of each test microorganism incubated overnight in Mueller Hinton broth, was inoculated to Mueller Hinton agar (inoculum size: 10^6 CFU/ml) Such culture media containing various antibiotics in various concentrations were prepared After incubation at 37° C. for 16 hours, the minimum inhibitory concentrations (MIC: μg/ml) were measured. As comparative compounds, cefotaxime, oeftazidime and the compounds disclosed in Example 2 of Japanese Unexamined Patent Publication No. 215690/1985 e.g. sodium 7-[2-(2-aminothiazol-4-yl)-2-ethoxyiminoacetamido]-3-(1-carboxylatemethylpyridinio-4-yl)thiomethyl-3-cephem-4-carboxylate (hereinafter referred to simply as "Reference Example A") were employed.

[2] = system: S. aureus JS1; test: agar plate dilution method, MIC against S. aureus JS1; format: cell-based; conditions: Staphylococcus aureus; S. aureus JS1 (methicilline resistant; lactamase-producing strain); 10^6 CFU/ml, 37° C., 16 hours; read-out: Minimum Inhibitory Concentration (MIC)
Description: as §1

[3] = system: S. aureus BB5703; test: agar plate dilution method, MIC against S. aureus BB5703; format: cell-based; conditions: Staphylococcus aureus, read-out: Minimum Inhibitory Concentration (MIC)
Description: as §1

[4] = system: S. epidermidis IAM12012; test: agar plate dilution method, MIC against S. epidermidis IAM12012; format: cell-based; conditions: Staphylococcus epidermidis, read-out: Minimum Inhibitory Concentration (MIC)
Description: as §1

[5] = system: M. luteus ATCC9341; test: agar plate dilution method, MIC against M. luteus ATCC9341; format: cell-based; conditions: Micrococcus luteus, read-out: Minimum Inhibitory Concentration (MIC)
Description: as §1

[6] = system: C. freundii GN346/16; test: agar plate dilution method, MIC against C. freundii GN346/16; format: cell-based; conditions: Citrobacter freundii, read-out: Minimum Inhibitory Concentration (MIC)
Description: as §1

[7] = system: E. coli NIHJ JC2; test: agar plate dilution method, MIC against E. coli NIHJ JC2; format: cell-based; conditions: Escherichia coli, read-out: Minimum Inhibitory Concentration (MIC)
Description: as §1

[8] = system: E. coli CSH2 (RK1); test: agar plate dilution method, MIC against E. coli CSH2 (RK1); format: cell-based; conditions: Escherichia coli, 16 h, read-out: Minimum Inhibitory Concentration (MIC)
Description: as §1

[9] = system: K. pneumoniae PCI-602; test: agar plate dilution method, MIC against K. pneumoniae PCI-602; format: cell-based; conditions: Klebsiella pneumoniae, PCI602, 16 h, read-out: Minimum Inhibitory Concentration (MIC)
Description: as §1

[10] = system: E. coli CSH(RE45); test: agar plate dilution method, MIC against E. coli CSH(RE45); format: cell-based; conditions: Escherichia coli, 16 h, read-out: Minimum Inhibitory Concentration (MIC)
Description: as §1

[11] = system: K. oxytoca GN10650; test: agar plate dilution method, MIC against K. oxytoca GN10650; format: cell-based; conditions: Klebsiella oxytoca; K. oxytoca GN10650 (lactamase-producing strain); 10^6 CFU/ml, 37° C., 16 hours; read-out: Minimum Inhibitory Concentration (MIC)
Description: as §1

[12] = system: K. pneumoniae No. 42; test: agar plate dilution method, MIC against K. pneumoniae No. 42; format: cell-based; conditions: Klebsiella pneumoniae; K. pneumoniae No. 42 (lactamase-producing strain); 10^6 CFU/ml, 37° C., 16 hours; read-out: Minimum Inhibitory Concentration (MIC)
Description: as §1

[13] = system: P. vulgaris HX-19; test: agar plate dilution method, MIC against P. vulgaris HX-19; format: cell-based; conditions: Proteus vulgaris, read-out: Minimum Inhibitory Concentration (MIC)
Description: as §1

[14] = system: P. vulgaris No. 33; test: agar plate dilution method, MIC against P. vulgaris No. 33; format: cell-based; conditions: Proteus vulgaris; P. vulgaris No. 33 (lactamase-producing strain); 10^6 CFU/ml, 37° C., 16 hours; read-out: Minimum Inhibitory Concentration (MIC)
Description: as §1

[15] = system: S. marcescens IAM 1184; test: agar plate dilution method, MIC against S. marcescens IAM 1184; format: cell-based; conditions: Serratia marcescens, IAM1184; S. marcescens IAM 1184; 10^6 CFU/ml, 37° C., 16 hours; read-out: Minimum Inhibitory Concentration (MIC)
Description: as §1

[16] = system: C. freundii GN346; test: agar plate dilution method, MIC against C. freundii GN346; format: cell-based; conditions: Citrobacter freundii; C. freundii GN346 (lactamase-producing strain); 10^6 CFU/ml, 37° C., 16 hours; read-out: Minimum Inhibitory Concentration (MIC)
Description: as §1

[17] = system: E. cloacae 963; test: agar plate dilution method, MIC against E. cloacae 963; format: cell-based; conditions: read-out: Minimum Inhibitory Concentration (MIC)
Description: as §1

[18] = system: E. cloacae Nek 39; test: agar plate dilution method, MIC against E. cloacae Nek 39; format: cell-based; conditions: Enterobacter cloacae, NEK39; E. cloacae Nek 39 (lactamase-producing strain); 10^6 CFU/ml, 37° C., 16 hours; read-out: Minimum Inhibitory Concentration (MIC)
Description: as §1

[19] = system: E. coli GN5482; test: agar plate dilution method, MIC against E. coli GN5482; format: cell-based; conditions: Escherichia coli; E. coli GN5482 (lactamase-producing strain); 10^6 CFU/ml, 37° C., 16 hours; read-out: Minimum Inhibitory Concentration (MIC)
Description: as §1

[20] = system: M. morganii GN5407; test: agar plate dilution method, MIC against M. morganii GN5407; format: cell-based; conditions: Morganella morganii; M. morganii GN5407 (lactamase-producing strain); 10^6 CFU/ml, 37° C., 16 hours; read-out: Minimum Inhibitory Concentration (MIC)
Description: as §1

[21] = system: S. marcescens No. 16-2; test: agar plate dilution method, MIC against S. marcescens No. 16-2; format: cell-based; conditions: Serratia marcescens, NO.162, 16 h, read-out: Minimum Inhibitory Concentration (MIC)
Description: as §1

[22] = system: Ps. aeruginosa IFO3445; test: agar plate dilution method, MIC against Ps. aeruginosa IFO3445; format: cell-based; conditions: Pseudomonas aeruginosa, IFO3445, 16 h, read-out: Minimum Inhibitory Concentration (MIC)
Description: as §1

[23] = system: Ps. aeruginosa AK 109; test: agar plate dilution method, MIC against Ps. aeruginosa AK 109; format: cell-based; conditions: Pseudomonas aeruginosa, AK109, 16 h, read-out: Minimum Inhibitory Concentration (MIC)
Description: as §1

[24] = system: Ps. aeruginosa AKR17; test: agar plate dilution method, MIC against Ps. aeruginosa AKR17; format: cell-based; conditions: Pseudomonas aeruginosa; Ps. aeruginosa AKR17; 10^6 CFU/ml, 37° C., 16 hours; read-out: Minimum Inhibitory Concentration (MIC)
Description: as §1

[25] = system: Ps. cepacia 23; test: agar plate dilution method, MIC against Ps. cepacia 23; format: cell-based, Pseudomonas cepacia; conditions: Burkholderia cepacia, 23, 16 h, read-out: Minimum Inhibitory Concentration (MIC)
Description: as §1

[26] = system: Ps. maltophilia GN 12873; test: agar plate dilution method, MIC against Ps. maltophilia GN 12873; format: cell-based, Pseudomonas maltophilia; conditions: Stenotrophomonas maltophilia, GN12873; Ps. maltophilia GN 12873 (lactamase-producing strain); 10^6 CFU/ml, 37° C., 16 hours; read-out: Minimum Inhibitory Concentration (MIC)
Description: as §1

[27] = system: A. calcoaceticus No. 4; test: agar plate dilution method, MIC against A. calcoaceticus No. 4; format: cell-based; conditions: Acinetobacter calcoaceticus; A. calcoaceticus No. 4; 10^6 CFU/ml, 37° C., 16 hours; read-out: Minimum Inhibitory Concentration (MIC)
Description: as §1

**Q.** For `Nc1nc(/C(=N/OC(C(=O)O)c2ccccc2)C(=O)NC2C(=O)N3C(C(=O)[O-])=C(CSc4cc[n+](CC(=O)O)cc4)CSC23)cs1` (stereo not drawn) [Example 3, disodium 7-[2-(2-aminothiazol-4-yl)-2-(α-carboxylatebenzyloxyimino)acetamide]-3-(1-caboxylatemethylpyridinio-4-yl)thiomethyl-3-cephem-4-carboxylate (syn-isomer)], which MIC ([1]; 16 h) is on record?
**A.** 12.5 µg/mL

**Q.** And the MIC [2]?
**A.** 50 µg/mL

**Q.** And the MIC ([3]; S. aureus BB5703, 10^6 CFU/ml, 37° C., 16 hours)?
**A.** 25 µg/mL

**Q.** What about the MIC ([4]; IAM12012, 16 h) of the same compound?
**A.** 6.25 µg/mL

**Q.** And the MIC ([5]; ATCC9341, 16 h)?
**A.** 3.12 µg/mL

**Q.** What about the MIC ([6]; GN346, 16 h) of the same compound?
**A.** 1.56 µg/mL

**Q.** What about the MIC ([7]; NIHJJC2, 16 h) of the same compound?
**A.** 1.56 µg/mL

**Q.** What about the MIC [8] of the same compound?
**A.** 0.78 µg/mL

**Q.** What about the MIC [9] of the same compound?
**A.** < 0.006 µg/mL

**Q.** And the MIC [10]?
**A.** 0.78 µg/mL

**Q.** What about the MIC [11] of the same compound?
**A.** 0.78 µg/mL

**Q.** And the MIC [12]?
**A.** 1.56 µg/mL

**Q.** And the MIC ([13]; HX19, P. vulgaris HX-19, 10^6 CFU/ml, 37° C., 16 hours)?
**A.** 0.0125 µg/mL

**Q.** What about the MIC [14] of the same compound?
**A.** 0.1 µg/mL

**Q.** And the MIC [15]?
**A.** 0.39 µg/mL

**Q.** And the MIC [16]?
**A.** 100 µg/mL

**Q.** And the MIC ([17]; Enterobacter cloacae, 963, 16 h)?
**A.** 1.56 µg/mL

**Q.** And the MIC [18]?
**A.** 6.25 µg/mL

**Q.** What about the MIC [19] of the same compound?
**A.** 0.78 µg/mL

**Q.** What about the MIC [20] of the same compound?
**A.** 0.78 µg/mL

**Q.** What about the MIC [21] of the same compound?
**A.** 6.25 µg/mL

**Q.** What about the MIC [22] of the same compound?
**A.** 3.12 µg/mL

**Q.** And the MIC [23]?
**A.** 6.25 µg/mL

**Q.** What about the MIC [24] of the same compound?
**A.** > 100 µg/mL

**Q.** What about the MIC [25] of the same compound?
**A.** 3.12 µg/mL

**Q.** What about the MIC [26] of the same compound?
**A.** > 100 µg/mL

**Q.** And the MIC [27]?
**A.** 50 µg/mL

**Q.** With `CCON=C(C(=O)NC1C(=O)N2C(C(=O)[O-])=C(CSc3cc[n+](CC(=O)O)cc3)CSC12)c1csc(N)n1` (stereo not drawn) [Reference Example A, sodium 7-[2-(2-aminothiazol-4-yl)-2-ethoxyiminoacetamido]-3-(1-carboxylatemethylpyridinio-4-yl)thiomethyl-3-cephem-4-carboxylate, reference compound] as the compound, how does the MIC ([1]; S. aureus 209P NIHJ-JC1, 10^6 CFU/ml, Mueller Hinton agar, 37° C., 16 hours) read?
**A.** 0.39 µg/mL

**Q.** And the MIC [2]?
**A.** 100 µg/mL

**Q.** What about the MIC ([3]; BB5703, 16 h) of the same compound?
**A.** 3.12 µg/mL

**Q.** What about the MIC ([4]; S. epidermidis IAM12012, 10^6 CFU/ml, 37° C., 16 hours) of the same compound?
**A.** 0.05 µg/mL

**Q.** What about the MIC ([5]; M. luteus ATCC9341, 10^6 CFU/ml, 37° C., 16 hours) of the same compound?
**A.** 0.1 µg/mL

**Q.** What about the MIC ([6]; C. freundii GN346/16, 10^6 CFU/ml, 37° C., 16 hours) of the same compound?
**A.** 0.1 µg/mL

**Q.** What about the MIC ([7]; NIHJJC2, E. coli NIHJ JC2, 10^6 CFU/ml, 37° C., 16 hours) of the same compound?
**A.** 0.05 µg/mL

**Q.** What about the MIC [8] of the same compound?
**A.** 0.025 µg/mL

**Q.** What about the MIC [9] of the same compound?
**A.** < 0.006 µg/mL

**Q.** And the MIC [10]?
**A.** 0.05 µg/mL

**Q.** What about the MIC [11] of the same compound?
**A.** 3.12 µg/mL

**Q.** And the MIC [12]?
**A.** 0.05 µg/mL

**Q.** And the MIC ([13]; HX19, 16 h)?
**A.** < 0.006 µg/mL

**Q.** And the MIC [14]?
**A.** 0.05 µg/mL

**Q.** And the MIC [15]?
**A.** 0.05 µg/mL

**Q.** What about the MIC [16] of the same compound?
**A.** 25 µg/mL

**Q.** And the MIC ([17]; Enterobacter cloacae, E. cloacae 963, 10^6 CFU/ml, 37° C., 16 hours)?
**A.** 0.1 µg/mL

**Q.** What about the MIC [18] of the same compound?
**A.** 1.56 µg/mL

**Q.** And the MIC [19]?
**A.** 0.2 µg/mL

**Q.** What about the MIC [20] of the same compound?
**A.** 0.05 µg/mL

**Q.** What about the MIC [21] of the same compound?
**A.** 6.25 µg/mL

**Q.** What about the MIC [22] of the same compound?
**A.** 6.25 µg/mL

**Q.** And the MIC [23]?
**A.** 12.5 µg/mL

**Q.** What about the MIC [24] of the same compound?
**A.** > 100 µg/mL

**Q.** What about the MIC [25] of the same compound?
**A.** 6.25 µg/mL

**Q.** What about the MIC [26] of the same compound?
**A.** > 100 µg/mL

**Q.** And the MIC [27]?
**A.** 100 µg/mL
